# Measurements: patent US9695462B2, “Method for evaluation of drug efficacy of a medicine having a therapeutic or preventive effect against a disease related to EL activity and a method for screening an inhibitor of EL activity” (SHIONOGI & CO., LTD., priority 2012, dated 2017)
# Biological target: T1, mouse EL (Mus musculus, UniProt Q9WVG5)
# T1 construct: made in house; host or cells: Freestyle 293F cells (pcDNA-DEST40 vector)
# T1 sequence (Q9WVG5 21-500): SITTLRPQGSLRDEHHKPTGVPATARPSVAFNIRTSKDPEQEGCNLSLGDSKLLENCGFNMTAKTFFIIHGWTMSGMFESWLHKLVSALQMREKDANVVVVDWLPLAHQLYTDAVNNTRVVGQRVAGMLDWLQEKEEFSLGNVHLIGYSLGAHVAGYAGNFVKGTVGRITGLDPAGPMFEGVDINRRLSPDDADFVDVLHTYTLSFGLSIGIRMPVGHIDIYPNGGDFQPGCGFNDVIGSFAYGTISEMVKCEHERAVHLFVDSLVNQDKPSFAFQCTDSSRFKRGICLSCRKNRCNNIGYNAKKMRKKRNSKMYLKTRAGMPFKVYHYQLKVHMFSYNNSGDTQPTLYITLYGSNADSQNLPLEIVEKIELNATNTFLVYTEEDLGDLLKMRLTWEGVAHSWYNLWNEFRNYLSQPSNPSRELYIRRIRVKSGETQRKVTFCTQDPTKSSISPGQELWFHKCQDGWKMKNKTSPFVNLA
# Assay: Inhibition of mouse EL activity using phosphatidylinositol-HDL as a substrate (NEFA production)
# Type: biochemical
# Settings: 37° C. for 2 hr, FIG. 5
# Description: Phosphatidylinositol (Avanti Polar Lipids Inc.) in chloroform was collected the necessary amount, which was completely evaporated the solvent to dryness under nitrogen. After addition of PBS, phosphatidylinositol-HDL induced phosphatidylinositol (2.5 mg/ml) into HDL (5 mg/ml) was prepared by mixing phosphatidylinositol vesicle prepared by sonication on ice with human HDL (Athens Research & Technology, Inc.) and incubating at 4° C. for 24 hr. The pcDNA-DEST40 (Invitrogen Corp.) cloned DNA encoding mouse EL was transfected into Freestyle 293F cells and the cells were cultured at 37° C. for 2 days in an atmosphere of 8% CO2. The cells were collected by centrifugation of the culture medium, suspended in Freestyle 293 Expression Medium (Invitrogen Corp.) containing 20 U/ml heparin and incubated at 37° C. for 45 min. After that, the supernatant obtained by removing the cells by centrifugation was used as mouse EL enzyme solution. […] After reaction at 37° C. for 2 hr, the amount of NEFA produced from substrate by EL was measured with NEFA C-test Wako (Wako Pure Chemical Industries, Ltd.) and the amount of NEFA (absorbance) was assumed an index of enzyme activity. The enzyme activity was calculated by subtracting the background value equivalent to the amount of endogenous NEFA without mouse EL enzyme solution from the value measured in enzyme reaction of EL (FIG. 4).
smiles,measurement,value
CCCCCCCCCCC[C@@H](C[C@@H]1OC(=O)[C@H]1CCCCCC)OC(=O)[C@H](CC(C)C)NC=O [orlistat],inhibitory activity against mouse EL (inhibition rate),dose-dependent inhibition
